The source made the active and inactive calls.
Columns and labels:
[1] = target: Glucose-6-phosphate 1-dehydrogenase (Homo sapiens, UniProt P11413); test: human G6PD enzyme inhibitors, dose response, selectivity assay for P. falciparum G6PD inhibitor project, biochemical, fluorescence (AID 504792); type: functional
[2] = inhibitors of clade B AD8 Env fusion, dose response, cell-based, cherry-pick (AID 652062); type: functional;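 also: luciferase signal from cell-cell fusion driven by HIV-1 clade B AD8 Env; potency is for inhibitors of fusion seen as a drop in luminescence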
[3] = off-target signal loss in HeLa-CEM21 co-culture – HeLa F-luc CTL cells, cherry-picked, counter-screen for HIV-1 Env fusion inhibitor project, dose response (AID 652040); type: functional, cell-based;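 also: potency for signal decrease marking cytotoxic or nonspecific inhibition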
[4] = inhibitors of HIV Env-driven cell fusion, dose response, cherry-pick (AID 652057); type: functional, cell-based
[5] = ZM109 Env clade C HIV-1 fusion inhibitors, dose response, HeLa effector, CEM target cells, luciferase, cherry-pick (AID 652058); type: functional, cell-based
Prothrombin = Prothrombin (Homo sapiens, UniProt P00734); test: Thrombin 1536 HTS Dose Response Confirmation. [Related pubchem assays: 1046 (Thrombin 1536 HTS; hits were confirmed in this assay)]; type: functional
Beta-galactosidase = Beta-galactosidase (Escherichia coli, UniProt Q8VNN2); test: Dose response counterscreen for EBI2 assay utilizing the enzyme, b-galactosidase.; type: functional
[6] = THP-1 cell cytotoxicity, dose response, cytotoxicity control for Vif-APOBEC3G degradation inhibitor project, THP-1 cells (AID 1117359); type: functional; details: Human immunodeficiency virus 1, THP-1
[7] = target: T1, Heat shock factor protein 1 (Mus musculus, UniProt P38532); test: HSF1 potentiators in luciferase reporter cells, confirmation, cell-based, NIH3T3, luminescence, dose retest (AID 435004); type: functional;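 also: stress induced by proteasome inhibitor MG132 added 30 min after compound; luciferase reporter driven by HSF1 response element in NIH3T3 cells; actives raise luminescence as potentiators of the MG132 stress response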
T1 sequence (P38532 whole entry): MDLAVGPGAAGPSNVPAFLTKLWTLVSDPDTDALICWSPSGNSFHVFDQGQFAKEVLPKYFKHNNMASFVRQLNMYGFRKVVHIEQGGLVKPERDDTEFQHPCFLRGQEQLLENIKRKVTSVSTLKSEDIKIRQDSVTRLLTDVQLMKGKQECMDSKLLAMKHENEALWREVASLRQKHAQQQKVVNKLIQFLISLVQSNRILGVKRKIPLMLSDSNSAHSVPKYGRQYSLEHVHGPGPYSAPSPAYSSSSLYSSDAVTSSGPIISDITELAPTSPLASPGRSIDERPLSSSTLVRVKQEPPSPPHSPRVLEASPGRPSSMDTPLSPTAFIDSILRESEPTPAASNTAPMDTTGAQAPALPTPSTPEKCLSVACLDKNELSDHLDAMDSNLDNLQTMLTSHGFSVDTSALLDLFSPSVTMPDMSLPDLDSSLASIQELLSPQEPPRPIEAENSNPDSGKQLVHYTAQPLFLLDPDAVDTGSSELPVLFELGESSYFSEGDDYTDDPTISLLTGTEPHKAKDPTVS

[8] = target: 5-hydroxytryptamine receptor 2A (Mus musculus, UniProt P35363); type: functional, cell-based;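 also: CHO-K1 cells with tagged receptor and beta-arrestin; agonist potency measured as compound-induced activation of the receptor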
[9] = Luminescence Cell-Based Dose Retest to Confirm Inhibitors of Cancer Stem Cells. [Related pubchem assays (depositor defined):AID2717, AID2721]; type: functional; details: Homo sapiens
Mu-type opioid receptor = Mu-type opioid receptor (Homo sapiens, UniProt P35372); type: functional, cell-based;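 also: U2OS cells with beta-arrestin recruitment to OPRM1 by beta-gal complementation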
Genome polyprotein = Genome polyprotein (dengue virus type 2, UniProt P29990); test: Dengue-2 NS5 methyltransferase inhibitors, primary screen, biochemical, confirmation dose response (AID 588689); type: functional
[10] = target: T2, Small ubiquitin-related modifier 1 (Homo sapiens, UniProt P63165); test: inhibitors of SUMO1 partner interactions, dose response, biochemical, FRET (AID 624383); type: functional; details: read-out: IC50_Mean
[11] = target: T2, Small ubiquitin-related modifier 1; test: inhibitors of SUMO1 peptide binding, dose response, biochemical, fluorescence polarization, uHTS hits (AID 624382); type: functional; details: read-out: IC50_Mean
[12] = cytotoxicity in HPDE-C7 cells, cell-based, fluorescence, HTS (AID 430); type: functional; details: Homo sapiens
[13] = cytotoxicity in KRAS-transformed pancreatic duct cells, primary screen, cell-based, fluorescence, HTS (AID 431); type: functional; details: Homo sapiens;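 also: cell line used: HPDE-C7K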
Cytochrome P450 3A4 = Cytochrome P450 3A4 (Homo sapiens, UniProt P08684);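 also: CYP3A4 tested as one member of a cytochrome P450 panel screen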
Cytochrome P450 2C9 = Cytochrome P450 2C9 (Homo sapiens, UniProt P11712)
Cytochrome P450 2C19 = Cytochrome P450 2C19 (Homo sapiens, UniProt P33261); test: Cytochrome panel assay with activity outcomes. Panel member name: p450-cyp2c19 Compounds with AC50 equal or less than 10 uM are considered active; type: functional
[14] = target: T3, Low molecular weight phosphotyrosine protein phosphatase (Homo sapiens, UniProt P24666); type: functional; details: read-out: IC50_Mean;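 also: Dose-response confirmation assay measuring inhibition of LMPTP enzyme activity by fluorescence intensity read-out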
T3 sequence (P24666 whole entry): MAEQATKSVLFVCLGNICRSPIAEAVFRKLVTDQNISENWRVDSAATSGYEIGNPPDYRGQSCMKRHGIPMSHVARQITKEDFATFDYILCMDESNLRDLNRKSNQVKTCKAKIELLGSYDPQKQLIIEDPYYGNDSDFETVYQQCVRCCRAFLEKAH

Large T antigen = Large T antigen (Simian virus 40, UniProt P03070); type: functional, Betapolyomavirus macacae;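 also: Confirmatory-stage PubChem screen for compounds that inhibit SV40 T antigen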
[15] = inhibitors of intracellular T. cruzi replication, confirmation, NIH3T3 host cells, beta-gal luminescence (AID 2044); type: functional, cell-based;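 also: intracellular parasites grown in NIH/3T3 mouse fibroblasts as host cells; luminescent beta-galactosidase reporter signal from transgenic T. cruzi replicating inside host cells; inhibitors lower the luminescence signal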
[16] = cytotoxicity toward NIH3T3 fibroblasts, dose response, counter-screen, cell-based, ATP luminescence, mouse fibroblasts (AID 2010); type: functional;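 also: cells exposed to compound for about 90 hours before reading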
[17] = cytotoxicity in OVCAR8 ovarian cancer cells, dose response, PAX8 project, cell-based, plate reader, dry powder samples (AID 743197); type: functional; details: OVCAR-8
[18] = NIH:OVCAR-3 ovarian cancer cell cytotoxicity, dose response, PAX8 inhibitor project, plate reader, dry powder samples (AID 743044); type: functional, cell-based
Paired box protein Pax-8 = Paired box protein Pax-8 (Homo sapiens, UniProt Q06710); test: inhibitors of PAX8-driven TPO luciferase reporter, dose response, RMG-I cells, cherry-pick (AID 687027); type: functional, cell-based;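 also: luciferase reporter driven by Pax8 target thyroperoxidase promoter measured by SteadyGlo luminescence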
[19] = IGROV1 ovarian cancer cell cytotoxicity, dose response, PAX8 inhibitor project, plate reader, dry powder samples (AID 743043); type: functional, cell-based; details: IGROV-1
[20] = T. cruzi growth inhibition in host cells, dose response, cell-based, plate reader, dry powder, set 2 (AID 652275); type: functional
HEK293 = test: inhibitors of LMP1-driven NF-kB reporter, dose response, cell-based, HEK293, luciferase, cherry-pick (AID 588343); type: functional; details: Homo sapiens
[21] = microbe, parasite or virus in culture; type: functional; details: Mycobacterium tuberculosis
[22] = target: T4, Ubiquitin-conjugating enzyme E2 N (Homo sapiens, UniProt P61088); type: functional;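 also: Dose-response confirmation in a TR-FRET assay detecting UBC13-driven polyubiquitin chain formation, inhibition measured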
T4 sequence (P61088 whole entry): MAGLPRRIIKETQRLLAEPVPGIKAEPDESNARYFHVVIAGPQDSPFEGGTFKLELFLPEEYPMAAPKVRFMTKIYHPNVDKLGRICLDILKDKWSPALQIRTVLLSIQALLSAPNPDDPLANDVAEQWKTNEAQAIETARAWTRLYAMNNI

[23] = target: T5, Rac GTPase-activating protein 1 (Homo sapiens, UniProt Q9H0H5); test: MgcRacGAP GTPase-activating activity inhibitors, confirmation, biochemical, ADP Hunter fluorescence, primary and confirmatory (AID 624330); type: functional
T5 sequence (Q9H0H5 whole entry): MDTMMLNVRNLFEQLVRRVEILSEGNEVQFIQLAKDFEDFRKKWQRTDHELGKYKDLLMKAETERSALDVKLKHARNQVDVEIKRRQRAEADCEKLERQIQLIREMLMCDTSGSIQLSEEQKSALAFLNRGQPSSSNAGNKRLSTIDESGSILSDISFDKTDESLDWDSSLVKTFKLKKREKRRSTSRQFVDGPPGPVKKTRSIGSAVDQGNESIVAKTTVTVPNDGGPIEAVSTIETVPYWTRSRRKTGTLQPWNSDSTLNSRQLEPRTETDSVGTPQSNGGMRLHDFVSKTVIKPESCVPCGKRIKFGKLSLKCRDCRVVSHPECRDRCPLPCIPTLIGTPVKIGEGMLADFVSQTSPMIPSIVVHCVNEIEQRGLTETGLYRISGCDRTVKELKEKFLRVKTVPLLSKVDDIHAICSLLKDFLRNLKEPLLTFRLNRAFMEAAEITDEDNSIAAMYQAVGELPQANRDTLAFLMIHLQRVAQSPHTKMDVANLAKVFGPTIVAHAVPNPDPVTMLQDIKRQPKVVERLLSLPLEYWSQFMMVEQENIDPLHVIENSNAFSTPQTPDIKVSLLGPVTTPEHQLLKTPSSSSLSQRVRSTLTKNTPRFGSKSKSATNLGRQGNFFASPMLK

T2 sequence (P63165 whole entry): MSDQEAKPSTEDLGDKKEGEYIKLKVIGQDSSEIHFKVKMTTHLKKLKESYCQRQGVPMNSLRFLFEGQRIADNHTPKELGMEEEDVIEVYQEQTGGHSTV
Sequence of Paired box protein Pax-8 (Q06710 whole entry): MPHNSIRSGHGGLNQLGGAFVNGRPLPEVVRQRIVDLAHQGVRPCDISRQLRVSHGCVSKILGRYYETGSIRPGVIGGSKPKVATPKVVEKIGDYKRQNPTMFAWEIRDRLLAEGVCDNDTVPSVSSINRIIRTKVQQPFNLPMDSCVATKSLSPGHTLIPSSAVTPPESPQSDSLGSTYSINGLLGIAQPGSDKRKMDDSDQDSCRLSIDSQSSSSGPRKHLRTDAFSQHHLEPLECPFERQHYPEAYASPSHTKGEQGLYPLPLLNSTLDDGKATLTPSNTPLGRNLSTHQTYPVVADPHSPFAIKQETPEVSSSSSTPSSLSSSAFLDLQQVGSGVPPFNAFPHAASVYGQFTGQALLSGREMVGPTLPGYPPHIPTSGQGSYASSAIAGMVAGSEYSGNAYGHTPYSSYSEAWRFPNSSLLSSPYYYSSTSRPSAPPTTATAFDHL
Sequence of 5-hydroxytryptamine receptor 2A (P35363 whole entry): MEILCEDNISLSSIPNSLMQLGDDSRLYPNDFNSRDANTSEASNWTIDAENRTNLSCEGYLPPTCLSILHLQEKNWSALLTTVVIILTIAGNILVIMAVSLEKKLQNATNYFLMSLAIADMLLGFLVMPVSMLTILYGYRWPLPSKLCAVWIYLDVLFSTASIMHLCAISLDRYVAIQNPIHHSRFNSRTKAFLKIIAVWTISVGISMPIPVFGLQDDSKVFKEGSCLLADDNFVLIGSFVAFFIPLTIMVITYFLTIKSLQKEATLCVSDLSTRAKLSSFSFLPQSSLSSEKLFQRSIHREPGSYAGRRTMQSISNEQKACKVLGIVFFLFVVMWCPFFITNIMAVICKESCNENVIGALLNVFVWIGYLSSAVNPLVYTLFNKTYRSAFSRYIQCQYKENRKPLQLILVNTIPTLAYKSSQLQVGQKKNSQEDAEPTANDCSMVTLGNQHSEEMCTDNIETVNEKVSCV
Sequence of Beta-galactosidase (Q8VNN2 whole entry): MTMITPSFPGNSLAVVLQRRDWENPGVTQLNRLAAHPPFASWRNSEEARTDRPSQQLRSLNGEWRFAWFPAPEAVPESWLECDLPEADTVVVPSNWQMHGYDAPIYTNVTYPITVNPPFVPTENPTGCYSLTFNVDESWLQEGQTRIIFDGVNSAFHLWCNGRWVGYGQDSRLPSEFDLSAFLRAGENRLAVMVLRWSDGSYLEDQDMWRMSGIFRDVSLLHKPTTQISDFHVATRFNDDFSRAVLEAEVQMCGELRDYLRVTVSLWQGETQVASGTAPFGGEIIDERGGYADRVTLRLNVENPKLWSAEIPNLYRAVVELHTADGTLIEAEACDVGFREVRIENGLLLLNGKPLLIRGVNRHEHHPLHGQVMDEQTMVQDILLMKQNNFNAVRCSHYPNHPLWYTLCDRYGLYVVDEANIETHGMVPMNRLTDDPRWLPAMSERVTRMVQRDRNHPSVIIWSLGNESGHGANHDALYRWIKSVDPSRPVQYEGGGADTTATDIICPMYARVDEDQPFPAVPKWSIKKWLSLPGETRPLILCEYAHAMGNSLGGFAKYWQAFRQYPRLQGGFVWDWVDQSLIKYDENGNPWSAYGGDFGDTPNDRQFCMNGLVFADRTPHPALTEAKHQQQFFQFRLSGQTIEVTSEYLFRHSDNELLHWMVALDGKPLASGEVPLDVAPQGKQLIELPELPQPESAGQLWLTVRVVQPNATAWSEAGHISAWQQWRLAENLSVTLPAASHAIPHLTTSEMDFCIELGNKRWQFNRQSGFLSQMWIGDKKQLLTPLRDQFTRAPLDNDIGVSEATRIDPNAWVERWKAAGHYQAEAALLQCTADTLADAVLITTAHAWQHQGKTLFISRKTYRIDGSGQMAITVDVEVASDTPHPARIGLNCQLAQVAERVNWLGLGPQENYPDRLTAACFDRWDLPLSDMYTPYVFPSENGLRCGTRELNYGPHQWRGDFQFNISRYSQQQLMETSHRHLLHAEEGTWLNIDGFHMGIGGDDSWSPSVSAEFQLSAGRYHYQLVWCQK
Sequence of Mu-type opioid receptor (P35372 whole entry): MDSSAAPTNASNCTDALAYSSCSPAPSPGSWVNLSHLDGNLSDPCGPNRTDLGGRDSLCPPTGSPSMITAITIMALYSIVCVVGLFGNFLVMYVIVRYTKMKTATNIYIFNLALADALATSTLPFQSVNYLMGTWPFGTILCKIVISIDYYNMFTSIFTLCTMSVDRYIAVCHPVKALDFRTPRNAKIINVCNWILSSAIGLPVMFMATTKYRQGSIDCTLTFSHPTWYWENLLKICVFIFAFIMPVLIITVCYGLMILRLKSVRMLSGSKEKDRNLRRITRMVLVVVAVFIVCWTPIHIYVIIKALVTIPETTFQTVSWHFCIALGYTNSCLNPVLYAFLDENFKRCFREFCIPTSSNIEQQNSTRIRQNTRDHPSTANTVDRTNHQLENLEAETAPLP
Sequence of Glucose-6-phosphate 1-dehydrogenase (P11413 whole entry, the tested form may be a part): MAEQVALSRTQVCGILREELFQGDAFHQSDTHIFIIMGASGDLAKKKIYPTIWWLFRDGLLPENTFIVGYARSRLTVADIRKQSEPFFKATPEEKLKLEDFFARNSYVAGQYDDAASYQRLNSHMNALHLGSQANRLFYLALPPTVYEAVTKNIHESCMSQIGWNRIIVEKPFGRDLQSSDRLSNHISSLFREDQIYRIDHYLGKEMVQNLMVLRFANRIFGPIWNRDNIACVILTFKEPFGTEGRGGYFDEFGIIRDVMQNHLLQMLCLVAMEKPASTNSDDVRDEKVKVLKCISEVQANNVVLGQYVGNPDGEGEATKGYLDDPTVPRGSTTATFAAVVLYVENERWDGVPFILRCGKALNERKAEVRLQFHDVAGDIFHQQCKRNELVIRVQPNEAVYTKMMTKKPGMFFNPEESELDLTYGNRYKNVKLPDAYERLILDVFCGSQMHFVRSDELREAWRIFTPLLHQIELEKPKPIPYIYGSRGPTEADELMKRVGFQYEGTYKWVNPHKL
Sequence of Cytochrome P450 3A4 (P08684 whole entry): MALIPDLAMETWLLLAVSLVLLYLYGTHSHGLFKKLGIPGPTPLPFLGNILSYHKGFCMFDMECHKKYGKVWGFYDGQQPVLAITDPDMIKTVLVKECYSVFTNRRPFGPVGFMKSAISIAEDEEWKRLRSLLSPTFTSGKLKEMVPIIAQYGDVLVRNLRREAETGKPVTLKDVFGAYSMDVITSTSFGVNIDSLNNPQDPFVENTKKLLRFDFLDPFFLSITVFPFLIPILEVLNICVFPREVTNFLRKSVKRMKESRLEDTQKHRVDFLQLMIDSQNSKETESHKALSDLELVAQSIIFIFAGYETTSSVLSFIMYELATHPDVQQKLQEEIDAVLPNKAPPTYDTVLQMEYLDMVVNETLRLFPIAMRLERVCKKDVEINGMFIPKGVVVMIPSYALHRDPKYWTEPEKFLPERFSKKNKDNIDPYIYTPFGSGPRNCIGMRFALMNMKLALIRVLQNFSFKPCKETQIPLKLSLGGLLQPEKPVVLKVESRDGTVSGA
Sequence of Genome polyprotein (P29990 2492-3391 limits assumed): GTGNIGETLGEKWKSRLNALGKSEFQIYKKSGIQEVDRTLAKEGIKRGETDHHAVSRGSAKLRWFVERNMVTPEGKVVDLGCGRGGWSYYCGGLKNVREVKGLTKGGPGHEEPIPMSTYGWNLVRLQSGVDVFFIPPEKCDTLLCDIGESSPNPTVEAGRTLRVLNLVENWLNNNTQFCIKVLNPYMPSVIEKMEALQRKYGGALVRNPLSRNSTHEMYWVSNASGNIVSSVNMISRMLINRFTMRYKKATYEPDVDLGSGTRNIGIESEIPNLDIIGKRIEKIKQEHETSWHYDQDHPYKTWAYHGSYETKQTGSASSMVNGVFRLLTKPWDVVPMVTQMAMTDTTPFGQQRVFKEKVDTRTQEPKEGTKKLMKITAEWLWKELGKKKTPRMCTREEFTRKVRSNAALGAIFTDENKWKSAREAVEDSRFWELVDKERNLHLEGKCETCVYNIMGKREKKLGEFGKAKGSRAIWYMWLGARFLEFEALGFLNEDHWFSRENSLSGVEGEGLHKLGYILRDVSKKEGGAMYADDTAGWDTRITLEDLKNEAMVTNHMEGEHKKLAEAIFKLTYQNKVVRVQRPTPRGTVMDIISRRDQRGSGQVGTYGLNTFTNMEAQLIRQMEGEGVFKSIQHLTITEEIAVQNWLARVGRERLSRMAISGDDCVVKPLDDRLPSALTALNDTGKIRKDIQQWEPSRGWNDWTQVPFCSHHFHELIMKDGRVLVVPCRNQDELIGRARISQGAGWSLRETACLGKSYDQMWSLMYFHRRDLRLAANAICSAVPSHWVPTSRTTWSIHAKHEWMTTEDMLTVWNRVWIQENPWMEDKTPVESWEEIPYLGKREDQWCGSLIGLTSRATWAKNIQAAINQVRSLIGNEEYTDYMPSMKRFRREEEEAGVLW
Sequence of Cytochrome P450 2C9 (P11712 whole entry): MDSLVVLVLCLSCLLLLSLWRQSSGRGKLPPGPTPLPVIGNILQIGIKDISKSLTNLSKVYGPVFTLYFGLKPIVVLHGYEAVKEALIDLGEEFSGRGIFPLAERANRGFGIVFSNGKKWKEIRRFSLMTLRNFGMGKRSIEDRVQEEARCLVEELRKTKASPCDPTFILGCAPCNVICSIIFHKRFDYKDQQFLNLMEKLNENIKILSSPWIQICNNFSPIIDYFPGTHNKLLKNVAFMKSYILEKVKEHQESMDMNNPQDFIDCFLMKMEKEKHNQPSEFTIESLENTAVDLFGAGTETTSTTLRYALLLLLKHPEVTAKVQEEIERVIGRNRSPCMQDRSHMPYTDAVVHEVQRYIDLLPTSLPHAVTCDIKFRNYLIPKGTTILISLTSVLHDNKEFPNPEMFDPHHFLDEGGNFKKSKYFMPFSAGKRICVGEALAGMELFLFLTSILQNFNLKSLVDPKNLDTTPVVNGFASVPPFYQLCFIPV

CCc1ccccc1N1CSC2=C(C#N)C(c3ccccc3F)CC(=O)N2C1 (stereo unspecified)
IC50 [1]: > 80 µM (inactive)

COc1cccc(C(=O)Nc2nnc(S(=O)(=O)N(C)Cc3ccccc3)s2)c1
IC50 [1]: > 80 µM (inactive)

CCN(CC)S(=O)(=O)c1cc(NC(=O)C(=O)c2c(-c3ccccc3)cc3ccccn23)ccc1C
AC50 [2]: 17.1 µM (active)
AC50 [3]: 9.48 µM (active)
AC50 [4]: 10.6 µM (active)
AC50 [5]: 24.9 µM (active)

CCCCOC(=O)n1ccc(C(=O)Nc2ccccc2OC)n1
IC50 (Prothrombin): 13.8 µM (active)

OC1(c2ccc(F)cc2)CCN(Cc2nnnn2Cc2cccs2)CC1
IC50 (Prothrombin): > 50 µM (not active)

CCOC(=O)N1CCN(C(=O)c2cc3cc(C)ccc3[nH]2)CC1
IC50 (Beta-galactosidase): > 80 µM (inactive)

C#CCCc1cscc1/C=[N+](\[O-])c1ccc(C(=O)OCC)cc1
IC50 [1]: 29.7 µM (inactive)

CCOC(=O)c1sc2nc(CC(=O)OC)nc(NCc3ccco3)c2c1C
CC50 [6]: 32.7 µM (active)
EC50 [7]: 63.7 µM (active)

Cc1cc(C)c(O)c(-c2[nH]nc3c2C(c2cccc(O)c2)N(Cc2ccco2)C3=O)c1 (stereo unspecified)
EC50 [8]: 8.01 µM (active)
AC50 [9]: 5.49 µM (active)
EC50 (Mu-type opioid receptor): 92.5 µM (inactive)

CC(=O)N1CCc2cc(C(=O)CN3CCN(c4ccccn4)CC3)ccc21
EC50 [8]: 0.257 µM (active)
EC50 (Mu-type opioid receptor): 92.5 µM (inactive)

O=C(O)c1cccc(-n2cccc2/C=C/[N+](=O)[O-])c1
IC50 (Genome polyprotein): 53.6 µM (active)
IC50 [10]: 26.5 µM (inactive)
IC50 [11]: > 66.6 µM (inactive)

COc1ccc(C(=O)CSc2cc(C)nc3nc(C)nn23)cc1OC
EC50 [12]: > 20 µM (not active)
EC50 [13]: > 20 µM (not active)

c1ccc2c(N3CCCCC3)ncnc2c1
AC50 [2]: 53.9 µM (active)
AC50 [3]: 56.2 µM (active)
AC50 [4]: 31.5 µM (active)
AC50 [5]: 5.37 µM (active)

CCOC(=O)c1c(C)nc2sc3c(=O)n(-c4ccc(C(C)=O)cc4)nnc3c2c1-c1ccc(Cl)cc1
AC50 (Cytochrome P450 3A4): inconclusive
AC50 (Cytochrome P450 2C9): 2.82 µM (inconclusive)

O=C(CN(Cc1ccccc1)S(=O)(=O)c1ccc(F)cc1)NCCC1=CCCCC1
AC50 [2]: 38 µM (active)
AC50 [3]: 17.1 µM (active)
AC50 [4]: 2.55 µM (active)
AC50 [5]: 6.77 µM (active)

O=C(O)CC(c1cccc2ccccc12)n1cccc1 (stereo unspecified)
AC50 (Cytochrome P450 3A4): inconclusive
AC50 (Cytochrome P450 2C19): 28.2 µM (inconclusive)

CC(C)N1CCOC(c2ccc(O)c(O)c2)C1 (stereo unspecified)
EC50 [8]: 1.68 µM (active)
EC50 (Mu-type opioid receptor): 92.3 µM (inactive)

CC(=Cc1ccccc1)C=C1SC(=S)N(CCCC(=O)Nc2ccc(C(=O)O)cc2)C1=O
IC50 [14]: 80 µM (inactive)

CCC(c1nnnn1-c1c(C)cccc1C)N1CCN(C/C=C/c2ccccc2)CC1 (stereo unspecified)
EC50 [8]: 0.362 µM (active)
EC50 (Mu-type opioid receptor): 92.6 µM (inactive)

c1ccc(OCCNc2nc(NCC3CC3)nc3cc(-c4ccccc4)sc23)cc1
IC50 (Beta-galactosidase): 104 µM (inactive)

CC(=O)CC1OC(O)=C(Br)/C1=N/Cc1ccccc1 (stereo unspecified)
EC50 [12]: 7.33 µM (active)
IC50 (Large T antigen): 41.6 µM (active)
EC50 [15]: 0.808 µM (active)
EC50 [13]: 9.82 µM (active)
EC50 [16]: 4.68 µM (active)

C[C@H](CO)N1C[C@H](C)[C@@H](CN(C)Cc2ccc(Oc3ccccc3)cc2)Oc2ccc(NS(=O)(=O)c3ccc(Cl)cc3)cc2CC1=O
AC50 [17]: 62.6 µM (active)
AC50 [18]: 68.7 µM (active)
AC50 (Paired box protein Pax-8): 7.43 µM (active)
AC50 [19]: 67.8 µM (active)

C[C@@H]1CCCCO[C@@H](CN(C)Cc2ccc(C(F)(F)F)cc2)[C@H](C)CN([C@H](C)CO)C(=O)c2cc(NS(=O)(=O)c3ccc(F)cc3)ccc2O1
AC50 [17]: 40.3 µM (active)
AC50 [18]: 25.2 µM (active)
AC50 (Paired box protein Pax-8): 5.08 µM (active)
AC50 [19]: 40 µM (active)

O=C(C[C@H]1CC[C@@H]2[C@H](COC[C@H](O)CN2S(=O)(=O)c2cccc(F)c2)O1)Nc1ccc(-c2ccccc2)cc1
AC50 [17]: 42.6 µM (active)
AC50 (Paired box protein Pax-8): 17.2 µM (active)
AC50 [19]: 59.4 µM (active)

CN(C)CC#Cc1cccc(-c2nc(C(=O)NCc3ccc4c(c3)OCO4)cc3c2[C@@H](CCO)N([S+]([O-])C(C)(C)C)C3)c1 (stereo partly specified)
AC50 [20]: 0.0993 µM (active)

Nc1nc(-c2ccco2)nn1C(=O)c1ccccc1
IC50 (Prothrombin): 0.926 µM (active)

CSc1nc2cc3c(cc2n1C(=O)c1ccc(C)cc1)OCCO3
AC50 (HEK293): > 350 µM (inactive)
IC50 (Prothrombin): 0.556 µM (active)

O=C(COc1ccc(Cl)cc1)N1CCN(Cc2ccc3c(c2)OCO3)CC1 [FIPEXIDE]
IC50 (Beta-galactosidase): > 80 µM (inactive)

C=C1c2c(Cl)ccc(O)c2C(=O)C2=C(O)[C@]3(O)C(=O)C(C(N)=O)=C(O)[C@@H](N(C)C)[C@@H]3[C@@H](O)[C@H]12.O=C(O)c1cc(S(=O)(=O)O)ccc1O [MECLOCYCLINE SULFOSALICYLATE]
IC50 [10]: 39.7 µM (inactive)
IC50 [11]: 8.79 µM (active)
CC50 [21]: 16.4 µM (active)
IC50 [22]: > 20 µM (inactive)
IC50 [23]: 63 µM (active)

Reference: ChEMBL document CHEMBL1201862, “PubChem BioAssay data set” (2004)
